For 25 molecules, MIC and Growth inhibition results are on record in ChEMBL document CHEMBL1129814, “Synthesis of thiophenes and thieno[3,2-c]pyran-4-ones as antileishmanial and antifungal agents” (1997).

SMILES strings stand for the structures. ≈ marks a conversion by molar mass, not a printed value. Where only a bound is given, the exact number is not on record here.

One assay relates to Trichophyton benhamiae. In words: In vitro for antifungal activity against Trichophyton mentagrophytes (A-280). The assay is classed as functional, Arthroderma benhamiae.
The next assay has as its system Candida albicans. In words: Antifungal activity against Candida albicans (SKF). The assay is classed as functional.
For a further assay, the system named is Leishmania donovani. The assay can be described thus: An vitro anti-leishmanial activity against Leishmania donovani promastigotes (25 uM). In kind it is functional.
Another assay concerns Sporothrix schenckii. In words: In vitro for antifungal activity against Sporothrix schenck ii (SS-1). In kind it is functional.
Another assay deals with Aspergillus fumigatus. In words: Antifungal activity against Aspergillus fumigatus (AF-27). In kind it is functional.
The next assay concerns Cryptococcus neoformans. In words: Antifungal activity against Cryptococcus neoformans (CN-17). The assay is classed as functional.

Regarding `CCOC(=O)c1sc2cc(-c3ccc(Cl)cc3)oc(=O)c2c1N`, the MIC against Trichophyton benhamiae, against Candida albicans, against Sporothrix schenckii, against Aspergillus fumigatus and in the assay with Cryptococcus neoformans was more than 100 µg/mL each time. The molecule further displayed a Growth inhibition in the assay on Leishmania donovani of 24%.

On to `CCOC(=O)c1sc2cc(-c3ccc(Br)cc3)oc(=O)c2c1N`, for which the MIC in the assay with Trichophyton benhamiae, against Candida albicans, against Sporothrix schenckii, against Aspergillus fumigatus and against Cryptococcus neoformans was more than 100 µg/mL in each case. The Growth inhibition in the assay with Leishmania donovani came out at 8%.

In the case of `CCOC(=O)c1sc(SC)c(C#N)c1N`, the MIC in the assay on Trichophyton benhamiae, in the assay on Candida albicans, in the assay on Sporothrix schenckii, against Aspergillus fumigatus and against Cryptococcus neoformans was more than 100 µg/mL in each case. The same molecule had a Growth inhibition in the assay with Leishmania donovani of 25%.

For `N=C(N)c1ccc(OCCCCCOc2ccc(C(=N)N)cc2)cc1` [PENTAMIDINE], the Growth inhibition with Leishmania donovani is 100%.

Regarding `CCOC(=O)c1sc2cc(-c3cc(F)c(Cl)cc3Cl)oc(=O)c2c1N`, the MIC with Trichophyton benhamiae, in the assay with Candida albicans, with Sporothrix schenckii, in the assay on Aspergillus fumigatus and against Cryptococcus neoformans was more than 100 µg/mL throughout. In the assay on Leishmania donovani, this molecule came in with a Growth inhibition of 70%.

Take `CCOC(=O)c1sc(SC)cc1-c1ccccc1`: the MIC against Trichophyton benhamiae, in the assay on Candida albicans, in the assay with Sporothrix schenckii, against Aspergillus fumigatus and with Cryptococcus neoformans was more than 100 µg/mL each time. The molecule also yielded a Growth inhibition with Leishmania donovani of 30%.

As to `CCOC(=O)c1sc(SC)cc1-c1ccc(Br)cc1`, the MIC with Trichophyton benhamiae, against Candida albicans, with Sporothrix schenckii, in the assay with Aspergillus fumigatus and against Cryptococcus neoformans was more than 100 µg/mL each time. The molecule further showed a Growth inhibition with Leishmania donovani of 20%.

`CCOC(=O)c1sc(SC)c(C(=O)OCC)c1O`: the minimum inhibitory concentration (MIC) in the assay with Trichophyton benhamiae, against Candida albicans, with Sporothrix schenckii, against Aspergillus fumigatus and in the assay with Cryptococcus neoformans was more than 100 µg/mL in each case. Moreover, in the assay with Leishmania donovani, the Growth inhibition is given as 63%.

Turning to `CCOC(=O)c1sc2cc(-c3ccc(F)cc3)oc(=O)c2c1N`, the MIC with Trichophyton benhamiae, against Candida albicans, with Sporothrix schenckii, in the assay with Aspergillus fumigatus and against Cryptococcus neoformans was more than 100 µg/mL each time. For the same molecule, the Growth inhibition with Leishmania donovani worked out at 30%.

Take `CCOC(=O)c1sc(SC)cc1-c1ccc(Cl)cc1`: the MIC in the assay on Trichophyton benhamiae, against Candida albicans, in the assay on Sporothrix schenckii, with Aspergillus fumigatus and with Cryptococcus neoformans was more than 100 µg/mL each time. The molecule further showed a Growth inhibition in the assay on Leishmania donovani of 55%.

As to `CSc1cc(-c2ccc(Br)cc2)c(C(=O)O)s1`, the MIC was 50 µg/mL (≈ 152 µM) against Trichophyton benhamiae; more than 100 µg/mL in the assay with Candida albicans; more than 100 µg/mL against Sporothrix schenckii; more than 100 µg/mL against Aspergillus fumigatus; more than 100 µg/mL in the assay with Cryptococcus neoformans. Besides, the Growth inhibition with Leishmania donovani is given as 100%.

On to `CCOC(=O)c1sc2cc(-c3cccnc3)oc(=O)c2c1N`, for which the MIC in the assay on Trichophyton benhamiae, in the assay on Candida albicans, against Sporothrix schenckii, with Aspergillus fumigatus and in the assay on Cryptococcus neoformans was more than 100 µg/mL each time. For the same molecule, the Growth inhibition with Leishmania donovani is given as 15%.

As for `CSc1cc(-c2ccc(F)cc2)c(C(=O)O)s1`, the MIC in the assay with Trichophyton benhamiae is 50 µg/mL (≈ 186 µM); with Candida albicans, more than 100 µg/mL; in the assay on Sporothrix schenckii, more than 100 µg/mL; against Aspergillus fumigatus it was more than 100 µg/mL; in the assay with Cryptococcus neoformans, more than 100 µg/mL. Besides, the Growth inhibition in the assay on Leishmania donovani amounted to 40%.

As to `CCOC(=O)c1sc2cc(-c3ccc([N+](=O)[O-])cc3)oc(=O)c2c1N`, the MIC with Trichophyton benhamiae, in the assay with Candida albicans, in the assay with Sporothrix schenckii, against Aspergillus fumigatus and against Cryptococcus neoformans was more than 100 µg/mL in each case. Also, the Growth inhibition with Leishmania donovani is given as 20%.

In the case of `CSc1cc(-c2cccnc2)c(C(=O)O)s1`, the MIC in the assay with Trichophyton benhamiae, in the assay with Candida albicans, against Sporothrix schenckii, in the assay with Aspergillus fumigatus and in the assay with Cryptococcus neoformans was more than 100 µg/mL each time. This molecule returned a Growth inhibition with Leishmania donovani of 25%.

Turning to `CC(=O)N1CCN(c2ccc(OC[C@H]3CO[C@](Cn4ccnc4)(c4ccc(Cl)cc4Cl)O3)cc2)CC1` [KETOCONAZOLE], the MIC in the assay on Trichophyton benhamiae was found to be 25 µg/mL (≈ 47 µM); in the assay with Candida albicans it was 0.1 µg/mL (≈ 0.188 µM); in the assay with Sporothrix schenckii it was 0.1 µg/mL (≈ 0.188 µM); against Aspergillus fumigatus, 0.7 µg/mL (≈ 1.32 µM); against Cryptococcus neoformans it was 0.3 µg/mL (≈ 0.565 µM).

For the molecule `CSc1cc(-c2ccc(C)cc2)c(C(=O)O)s1`, the MIC against Trichophyton benhamiae, with Candida albicans, with Sporothrix schenckii, with Aspergillus fumigatus and in the assay with Cryptococcus neoformans was more than 100 µg/mL each time. In the assay on Leishmania donovani, this molecule registered a Growth inhibition of 10%.

For the molecule `CCOC(=O)c1sc2cc(-c3ccc(OC)cc3)oc(=O)c2c1N`, the MIC with Trichophyton benhamiae, in the assay with Candida albicans, with Sporothrix schenckii, against Aspergillus fumigatus and in the assay with Cryptococcus neoformans was more than 100 µg/mL in each case. In the assay with Leishmania donovani, this molecule had a Growth inhibition of 10%.

With `CCOC(=O)c1sc(SC)cc1-c1cccnc1`, the minimal inhibitory concentration (MIC) in the assay on Trichophyton benhamiae was found to be 25 µg/mL (≈ 89.5 µM); in the assay with Candida albicans, 25 µg/mL (≈ 89.5 µM); with Sporothrix schenckii it was 25 µg/mL (≈ 89.5 µM); against Aspergillus fumigatus it was 50 µg/mL (≈ 179 µM); against Cryptococcus neoformans, 50 µg/mL (≈ 179 µM). In the assay on Leishmania donovani, this molecule yielded a Growth inhibition of 25%.

As to `CCOC(=O)c1sc2cc(-c3cccc([N+](=O)[O-])c3)oc(=O)c2c1N`, the MIC in the assay with Trichophyton benhamiae, in the assay on Candida albicans, in the assay with Sporothrix schenckii, in the assay with Aspergillus fumigatus and against Cryptococcus neoformans was more than 100 µg/mL in each case. Further, in the assay on Leishmania donovani, the Growth inhibition is reported as 28%.

Consider `CCOC(=O)c1sc(SC)c(C(=O)OC)c1O`, for which the MIC came out at 6.25 µg/mL (≈ 22.6 µM) with Trichophyton benhamiae; 50 µg/mL (≈ 181 µM) against Candida albicans; 12.5 µg/mL (≈ 45.2 µM) against Sporothrix schenckii; 25 µg/mL (≈ 90.5 µM) in the assay on Aspergillus fumigatus; 12.5 µg/mL (≈ 45.2 µM) against Cryptococcus neoformans. In the assay on Leishmania donovani, this molecule registered a Growth inhibition of 95%.

In the case of `CCOC(=O)c1sc(SC)cc1-c1ccc(C)cc1`, the MIC against Trichophyton benhamiae, in the assay with Candida albicans, in the assay with Sporothrix schenckii, against Aspergillus fumigatus and against Cryptococcus neoformans was more than 100 µg/mL throughout. Also, in the assay on Leishmania donovani, the Growth inhibition is listed as 100%.

On to `CCOC(=O)c1sc(SC)c(C#N)c1O`, for which the MIC was 50 µg/mL (≈ 206 µM) against Trichophyton benhamiae; more than 100 µg/mL in the assay on Candida albicans; more than 100 µg/mL with Sporothrix schenckii; more than 100 µg/mL with Aspergillus fumigatus; more than 100 µg/mL with Cryptococcus neoformans. Also, the Growth inhibition with Leishmania donovani came out at 60%.

For `CSc1cc(-c2ccc(Cl)cc2)c(C(=O)O)s1`, the MIC with Trichophyton benhamiae, in the assay with Candida albicans, in the assay with Sporothrix schenckii, with Aspergillus fumigatus and against Cryptococcus neoformans was more than 100 µg/mL in each case. The molecule also yielded a Growth inhibition in the assay on Leishmania donovani of 30%.

For `CCOC(=O)c1sc(SC)cc1-c1ccc(F)cc1`, the MIC with Trichophyton benhamiae, against Candida albicans, in the assay on Sporothrix schenckii, in the assay with Aspergillus fumigatus and in the assay on Cryptococcus neoformans was more than 100 µg/mL each time. This molecule displayed a Growth inhibition in the assay on Leishmania donovani of 95%.
